# Test results reported in patent US11975009B2, “Use of zinc porphyrin as an antimicrobial” (ZNABLE LLC, priority 2022, dated 2024).
# Tests used:
# PsA [1] = assay: Testing for bacterial resistance; format: cell-based, Pseudomonas aeruginosa
# Description: One of the major concerns of developing novel small molecule antimicrobials is the potential for bacteria to develop resistance. […] The mechanism of action and target are believed to explain the absence of resistance. An MBC:MIC ratio of 2 which is what we derived from kill curves, was considered an indication of lack of resistance.
# A549/U937 = format: cell-based
# Experimental: FIGS. 22A-22B show a lung co-culture (A549/U937) model after 24 hour exposure to ZnPor displaying no toxicity (FIG. 22A) and U937 stained and imaged after 24 hours of dark exposure to 50 μM ZnPor (FIG. 22B).
# [2] = system: planktonic PsA PAO1 cells; assay: Syber Green entry into planktonic cells (permeabilization); format: cell-based, Pseudomonas aeruginosa; conditions: pre-treated planktonic PsA cells
# Experimental: Syber Green™ can pass through the cell wall into PsA cells pre-treated with ZnPor (II) at concentrations as low as 1 μg/mL; this is below the MIC (4 ug/m). Cells treated with ZnPor (II) allowed the entry of the Syber Green molecule even at sub-MIC concentrations of ZnPor (II).
# [3] = system: PAO1 and PA14 strains of PsA; assay: Time kill curves, planktonic cells; format: cell-based, Pseudomonas aeruginosa
# Experimental: FIGS. 13A-13B show the time kill curve of ZnPor (II) (25 μg/mL) against PAO1 (FIG. 12A) and PA14 (FIG. 12B) strains of PsA. Overnight cultures of strain PAO1 and PA14 grown in MSG media were diluted in fresh MSG to 10^6 cells/mL with fresh medium. ZnPor was added (25 μg/ml) and cultures were grown aerobically, with shaking, for 6 hours. Viable cell count (CFU per ml) was determined by serially diluting bacterial cells at the indicated time points, onto LB agar. Data from 3 separate experiments represents total mean±standard error, total (n=9) and (n=8) respectively.
# PsA PA14 biofilms = assay: PA14 biofilm on polyethylene coupons, LIVE/DEAD stain, CLSM; format: cell-based, Pseudomonas aeruginosa; conditions: ZnPor 25 μg/mL 2 h, then PEV2 (MOI 10:1) 4 h
# Experimental: Biofilms were grown on polyethylene coupons in CDC approved bioreactors in MSG media for […]. Overnight media was replaced with PBS and biofilms were treated as follows: (FIG. 19A) Control (no additions), (FIG. 19B) ZnPor (25 μg/mL) for 2 hours, (FIG. 19C) Phage PEV2 (MOI of 10:1) for 4 hours, or (FIG. 19D) ZnPor (25 μg/mL) for 2 hours followed by the addition of Phage PEV2 (MOI of 10:1) for 4 hours. Coupons were gently washed in distilled water and were treated with LIVE/DEAD™ stain. All coupons were imaged using confocal laser scanning […] microscopy (CLSM) at 60×.
# Drosophila melanogaster = conditions: flies fed ZnPor (II); Yoho et al. 2014; cited from earlier work
# PsA [4] = assay: Mouse model of PsA lung infection; format: in vivo, mice
# Experimental: Mice were infected with PsA intratracheally, and subsequently treated with 125 μM ZnPor intratracheally. Bronchoalveolar lavage (BAL) was collected at 16 h. Bacterial titers were measured in BAL. *p<0.05, Mann-Whitney U. Representative of one experiment.
# Based on in vitro experiments showing significant bactericidal activity of ZnPor against PsA and minimal toxicity of ZnPor in vitro in airway and alveolar epithelial cells as well as in monocytes/macrophages, the next experiments examined efficacy and safety of ZnPor in PsA infection in mice. Wildtype (WT) mice were anesthetized and infected with 5×10^6 CFU PsA via intratracheal route. Immediately following infection, mice were anesthetized again and treated with ZnPor (125 μM) or PBS (negative control). Mice were monitored for clinical signs of toxicity. At 16 h, mice were sacrificed and bronchoalveolar lavage (BAL) and lungs were isolated.
# Listeria monocytogenes [5] = assay: Killing activity against a range of bacteria; format: cell-based
# PsA PAO1 = assay: Minimum inhibitory concentration (MIC) of ZnPor (II)
# Listeria monocytogenes [6] = assay: Killing of Listeria inside macrophages; format: cell-based; conditions: macrophages treated with ZnPor (II) vs control
# Experimental: A growing number of bacteria are being discovered as having the ability to enter and grow within human cells. The model bacterium used to test this was: Listeria monocytogenes. This bacterium is well known for its ability to survive inside human cells and using actin tails (sourced from the host cell) to propel themselves out of one cell and into another. The L. monocytogenes bacteria were incubated with macrophages. […] Then macrophages were cracked open and plated on antibiotic plates to get a viable count of the number of cells taken up (control) and compared to macrophages treated with ZnPor (II).
# [7] = system: Human airway epithelial (BEAS2B, 16HBE, CFBE) and alveolar epithelial (A549) cells; assay: LDH in supernatant of pulmonary cell lines; format: cell-based
# Experimental: Representative of one experiment.
# Human airway epithelial (BEAS2B, 16HBE, CFBE) and alveolar epithelial (A549) cells were cultured, plated on 12-well plates, serum starved overnight, and treated with increasing doses of ZnPor. Cell culture supernatants were collected after 48 h of treatment, and supernatants were then assayed for lactate dehydrogenase (LDH), a general marker of cell death released into the supernatant after cell lysis.
# [8] = system: Coronavirus isolated from a cold (ATCC); assay: Anti-viral activity against a Coronavirus; format: cell-based; conditions: without light activation
# Description: ZnPor (II) can interact with many macromolecules and may bind to important components of a virus, rendering it unable to infect cells. […] This is due to the high levels of ROSs (Reactive Oxygen Species, e.g., superoxide) produced by activation of the porphyrin and which destroy a wide range of macromolecules (proteins, lipids etc.). […] ZnPor can bind to proteins, which may have accounted for how ZnPor (II) acted, in that it bound to the viral proteins such as the spike protein of Coronaviruses. If the Spike proteins bound to ZnPor (II) then the virus couldn't attach to the host cell binding receptor for the spike proteins. There are relatively few antiviral agents. While there are a number of porphyrins that can inactivate viruses using light activation, ZnPor (II) porphyrin has antiviral activity without light activation.
# PsA [9] = assay: Activity of extant antibiotics together with ZnPor (II)
substance,measurement,setting,value
"meso-5,10,15-tris(N-methyl-4-pyridyl)-20-(pentafluorophenyl)porphyrinatozinc(II), tris-p-toluene sulfonate [ZnPor]",colony growth on LB plates,"PsA [1]; 2×, 4× and 8×MIC concentration of ZnPor with PsA cell",No colony growth
same,resistance,PsA [1]; during 8 years of testing,no resistance was observed
same,toxicity,A549/U937,no toxicity
same,lowest ZnPor (II) concentration allowing Syber Green entry,[2],1 µg/mL
same,bactericidal concentration,[3]; PsA,25 µg/mL
same,MBC:MIC ratio,[3]; derived from kill curves,2
same,non-toxic level relative to the MBC for S. aureus MRSA strain,human lung or skin cells,over 100 times
same,toxicity,human lung or skin cells,no toxicity
same,effect on PA14 cells towards PEV2 phage,PsA PA14 biofilms,sensitive to PEV2 phage
same,toxicity to Drosophila,Drosophila melanogaster,not toxic
same,bacterial titers in BAL and lung homogenates,"PsA [4]; WT mice, 5×10^6 CFU PsA intratracheal, ZnPor 125 μM, 16 h",significantly decreased PsA infection
same,clinical toxicity,"PsA [4]; ZnPor-treated versus untreated mice, 125 μM",No clinical toxicity was observed
same,killing,Listeria monocytogenes [5],effective at killing
same,MIC,PsA PAO1,4 µg/mL
same,number of Listeria cells in the macrophages,Listeria monocytogenes [6],a log reduction
same,LDH dose response,"[7]; 16HBE, CFBE, and A549 cells",dose response of decreased LDH
same,LDH in cell culture supernatant vs treatment without ZnPor,"[7]; 48 h of treatment, increasing doses",significantly less LDH
same,viral infection,[8],prevented viral infection
same,"effect on extant antibiotics ineffective against bacterial biofilms, e.g., Tobramycin",PsA [9],enables activity
